Test results as given in patent US4414408A, “Phenolic antioxidants” (The Goodyear Tire & Rubber Company, priority 1982, dated 1983).

Experiment: Oxygen absorption (time to absorb one percent oxygen)
Details: 1.0 part antioxidant in SBR-1006

C=CC(=O)Oc1c(Cc2cc(C)cc(C(C)(C)C)c2O)cc(C)cc1C(C)(C)C [Example 8, 2-(2-hydroxy-3-tert.butyl-5-methylbenzyl)-4-methyl-6-tert.butyl phenyl acrylate]
Hours to Absorb 1% O2: 315 h
